Measured values as given in patent US7632840B2, “Quinazoline compounds for the treatment of hyperproliferative disorders” (AstraZeneca AB, priority 2004, dated 2009).

Key:
KB cells = assay: EGFR driven KB cell proliferation assay, Test (b); type: cell-based; settings: Homo sapiens
Protocol: Following adhesion to the plate, the cells are treated with or without EGF (final concentration of 1 ng/ml) and with or without compound at a range of concentrations in dimethylsulfoxide (DMSO) (0.1% final) before incubation for 4 days. […] MTT solution was then tipped off, the plate gently tapped dry and the cells dissolved upon the addition of 100 μl of DMSO.
Absorbance of the solubilised cells was read at 540 nm using a Molecular Devices ThermoMax microplate reader. Inhibition of proliferation was expressed as an IC50 value. […] The range of proliferation was calculated from the positive (vehicle plus EGF) and negative (vehicle minus EGF) control values.

EGFR tyrosine kinase = target: T1, EGFR tyrosine kinase (Homo sapiens, UniProt P00533); assay: Protein tyrosine kinase phosphorylation assay, Test (a); type: biochemical; settings: read-out: 1C50 (nM) Test (a) (Inhibition of EGFR tyrosine kinase protein phosphorylation)
T1 construct: Recombinant intracellular fragments of EGFR, erbB2 and erbB4; made in house; host or cells: baculovirus/Sf21 insect cells (cleared lysate used)
Protocol: Recombinant intracellular fragments of EGFR, erbB2 and erbB4 (accession numbers X00588, X03363 and L07868 respectively) were cloned and expressed in the baculovirus/Sf21 system. Lysates were prepared from these cells by treatment with ice-cold lysis buffer (20 mM N-2-hydroxyethylpiperizine-N′-2-ethanesulfonic acid (HEPES) pH7.5, 150 mM NaCl, 10% glycerol, 1% Triton X-100, 1.5 mM MgCl2, 1 mM ethylene glycol-bis(β-aminoethyl ether) N′,N′,N′,N′-tetraacetic acid (EGTA), plus protease inhibitors and then cleared by centrifugation.
Constitutive kinase activity of these recombinant proteins was determined by their ability to phosphorylate a synthetic peptide (made up of a random co-polymer of Glutamic Acid, Alanine and Tyrosine in the ratio of 6:3:1). […]
The immobilised phospho-peptide product of the reaction was detected by immunological methods. […] After further washing, HRP activity in each well of the plate was measured colorimetrically using 22′-Azino-di-[3-ethylbenzthiazoline sulfonate (6)] diammonium salt crystals (ABTS™ from Roche) as a substrate.
Kinase inhibition for a given compound was expressed as an IC50 value. […] The range of phosphorylation was calculated from the positive (vehicle plus ATP) and negative (vehicle minus ATP) control values.

T1 sequence (P00533 669-1210 limits assumed): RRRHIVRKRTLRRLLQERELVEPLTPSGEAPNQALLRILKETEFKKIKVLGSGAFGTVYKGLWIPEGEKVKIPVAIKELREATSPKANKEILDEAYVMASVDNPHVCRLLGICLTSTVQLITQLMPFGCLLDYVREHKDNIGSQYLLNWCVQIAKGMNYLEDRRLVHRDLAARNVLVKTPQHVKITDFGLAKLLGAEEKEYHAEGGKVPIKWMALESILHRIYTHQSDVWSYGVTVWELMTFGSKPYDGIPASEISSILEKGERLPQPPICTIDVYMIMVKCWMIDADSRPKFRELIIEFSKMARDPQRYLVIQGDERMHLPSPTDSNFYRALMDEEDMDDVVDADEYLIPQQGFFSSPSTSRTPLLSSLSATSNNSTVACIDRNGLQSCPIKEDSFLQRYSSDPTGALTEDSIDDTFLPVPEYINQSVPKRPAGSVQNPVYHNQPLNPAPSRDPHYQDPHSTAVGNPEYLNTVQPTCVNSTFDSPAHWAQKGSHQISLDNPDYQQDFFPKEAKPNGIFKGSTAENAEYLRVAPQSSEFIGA

Row | IC50 (KB cells) [nM] | IC50 (EGFR tyrosine kinase) [nM] | SMILES
1 | 36 | 17 | CNC(=O)C1(N(C)Cc2cc3c(Nc4cccc(Cl)c4F)ncnc3cc2OC)CCN(C)CC1 [Example 20, 4-[({4-[(3-chloro-2-fluorophenyl)amino]-7-methoxyquinazolin-6-yl}methyl)(methyl)amino]-N,1-dimethylpiperidine-4-carboxamide]
2 | 91 | – | COc1cc2ncnc(Nc3cccc(Cl)c3F)c2cc1CN(C)C1(C(N)=O)CCN(S(C)(=O)=O)CC1 [Example 66, 4-[({4-[(3-chloro-2-fluorophenyl)amino]-7-methoxyquinazolin-6-yl}methyl)(methyl)amino]-1-(methylsulfonyl)piperidine-4-carboxamide]
